Laboratory results taken from patent publication US20210161937A1, “ACTIVATION OF MITOCHONDRIAL UNCOUPLING AS A THERAPEUTIC INTERVENTION” (The Trustees of Columbia University in the City of New York, priority 2018, published 2021).
“Also recorded” adds a separate entry of the source.

Columns and labels:
Drosophila [1] = experiment: CO2 respiration assay after mitochondrial drug feeding; assay type: in vivo; settings: 24 hr feeding; 500 μM Oligomycin, 1 mM rotenone, 5 mM 2,4 DNP, 0.5% stearate
Description: Measurement of CO2 production was performed similarly to Yatsenko et al. 2014. Briefly, 10 flies were placed in a sealed pipette tip-capillary respirometer (without anesthesia) containing a small amount of soda-lime. Respirometers were placed capillary side down in dH20 containing 0.1% blue food dye in a sealed TLC chamber placed in a 25° C. incubator. Empty sealed respirometers (containing no flies) were used to subtract blue dye background migration from experimental (fly-containing) samples. Flies were tested for 2 hr between at circadian timepoints, and CO2 production rate was indirectly determined by the amount of liquid movement up the capillary per hour after background subtraction. At least 6 groups of 10 flies were used per genotype for quantification for each condition. For mitochondrial drug feeding experiments, flies were placed on food containing the following compounds for 24 hr: 500 μM Oligomycin, 1 mM rotenone, 5 mM 2,4 DNP, 0.5% stearate, or ethanol vehicle controls.

ISC tumors = experiment: Notch-RNAi induced ISC tumor formation (Esg^ts>UAS-Notch-RNAi flies); assay type: in vivo, Drosophila
Description: (§1) Newly eclosed flies (˜24 hr) were collected and allowed to mate for 48 hr. Female and male flies were separated and maintained at a density of 30-35 flies per vial in a humidified, temperature-controlled (25° C.) incubator with a 12-hour light-dark cycle. For starvation analysis, flies were aged for 7 days in vials containing indicated diets and then transferred to 1% agar in a humidified, temperature-controlled incubator with 12-hour light-dark cycle at 25° C. Death was scored every 1-2 days, with live flies transferred to fresh vials every 2-3 days. Statistical significance was determined by log-rank analysis.
Ese^ts>UAS-Notch-RNAi flies were reared at 18° C. Upon eclosion flies were collected, sexed and placed on media containing 0.05 mM 2,4 DNP, or ethanol vehicle food at 30° C. Time-points of day 0, 8, and 16 days were taken. Intestines were dissected, fixed, and stained as above pHH3 protocol, with anti-GFP (cell signaling) and 1.5 μg/mL Hoechst stain. Quantification of GFP area was performed by using the ImageJ count particle tool in the GFP channel normalized to total area of the posterior midgut that was imaged. 7-13 guts were used for each condition and timepoint.

[2] = tested on: posterior midgut, ISCs/EBs; experiment: MitoSOX intestinal staining and esg+ cell quantification in posterior midguts of Esg-GAL4>GFP flies; assay type: in vivo, Drosophila; settings: Esg-GAL4>GFP flies fed DNP vs vehicle
Description: Flies were anesthetized on ice and intestines were dissected in cold Schneider's Medium (Thermo Fisher Scientific). Intestines were then incubated in 75 nM of TMRE (Thermo Fisher Scientific) in Schneider's Medium, for 10 min at room temperature. Samples were rinsed three times for 30 sec with a solution consisting of 20 nM of TMRE Schneider's Medium. For MitoSOX staining dissected intestines were immersed in 50 μM MitoSOX Red (Invitrogen) in Schneider's Medium for 5 min at room temp, then washed three times for 30 sec in Schneider's Medium. MitoSOX or TMRE samples were quickly mounted in Schneider's Medium containing 1.5 μg/mL Hoechst stain. Intestines were imaged within 20 min on a Ziess LSM800 confocal microscope. Z-stacks spanning the entire posterior midgut were taken. Quantification of TMRE or MitoSOX was performed using ImageJ in which mean fluorescent intensity values were quantified. TMRE foci were quantified using the ImageJ (Schneider et al. 2012) local maxima tool, using identical thresholding for all images. Foci number were normalized to the number of nuclei in the measured field of view. Quantification of MitoSOX output of ISCs/EBs was determined by mean intensity from individual Z-planes with regions of interest defined by esgGFP expression, cell size, and basal location within the intestinal epithelium. Mean intensity of MitoSOX fluorescence levels in all ISCs/EBs were averaged for each individual intestine. A minimum of 9 midguts were used for each genotype or drug treatment.

Drosophila [3] = experiment: Lifespan analysis of flies fed drug-supplemented adult medium; assay type: in vivo; settings: for median lifespan of control flies versus dose / median lifespan of per^01 null mutants versus dose: varying concentrations fed during adulthood; for lifespan of per^01 mutants / median lifespan of per^01 null mutants versus dose: per^01 null mutants; for lifespan of per^01 mutants: dietary DNP or BHT; for lifespan: wild-type (control) male flies, dietary 2,4 DNP 0.01-0.1 mM or BHT 0.1-1 mM vs ethanol vehicle
Description: Drosophila were reared from embryos in low-density bottles with standard medium containing 3.8% glucose, 1.9% sucrose, 3% yeast nutritional flake (Lab Scientific), 6.5% cornmeal, 0.8% agar, supplemented with 1.5% methylparaben mix (10% methylparaben in ethanol) and 1% propionic acid. Adult flies that eclosed within a 24 hour period were collected and transferred to “adult medium” containing 3.8% glucose, 1.9% sucrose, 8% cornmeal, 1% agar, and either 0.01%, 0.5%, 3%, 5%, or 10% yeast extract (Difco) supplemented with 1.5% methylparaben mix and 1% propionic acid for lifespan and biochemical analysis. All percentages given in wt/v except methylparaben mix, propionic acid given in v/v.
All drugs were supplemented into cooled (65° C.) liquid adult medium (containing 3% yeast extract) following preparation to the following final concentration(s): RU486 100μg/mL. RU486 (Cayman Chemical) dissolved in ethanol was supplemented into medium after eclosion at a final concentration of 100 μg/mL (with the exception of DaGS>UAS-Ucp4c and controls, 5 μg/mL) vehicle controls were supplemented with same volume of ethanol alone. Developmental induction was achieved by adding RU486 at concentration of 5 μg/mL, or ethanol vehicle, followed by adults being aged on standard food containing no RU486. For uncoupler feeding 2,4 DNP or BHT purchased from Sigma was dissolved in ethanol fresh at the time of making food and added in to the media, at the indicated concentrations. 2,4 DNP (0.01-0.1 mM) and BHT (0.1-1 mM).
as §1

## CC[C@H]1/C=C/C=C/C[C@@H](C)[C@H](O)[C@@](C)(O)C(=O)[C@@H](C)[C@H](O)[C@@H](C)C(=O)[C@@H](C)[C@H](O)[C@@H](C)/C=C/C(=O)O[C@@H]2[C@H](C)[C@H](CC1)O[C@]1(CC[C@H](C)[C@H](C[C@@H](C)O)O1)[C@H]2C [oligomycin]
Drosophila [1]
  respiration (relative CO2 production) of control flies: inhibited the CO2 output of both control and per^01 animals to a similar degree
  respiration (relative CO2 production) of per^01 mutants: inhibited the CO2 output of both control and per^01 animals to a similar degree

## O=[N+]([O-])c1ccc(O)c([N+](=O)[O-])c1 [DNP, 2,4-dinitrophenol]
ISC tumors; 0.05 mM 2,4 DNP in media vs ethanol vehicle, 30° C., day 0, 8, 16
  progression of ISC tumors (GFP+ area in the midgut): slowed the progression of ISC tumors; also recorded: delayed tumor formation
ISC tumors; dietary 2,4 DNP vs vehicle
  lifespan of flies with Notch-induced tumor formation: extended the shortened lifespan of these animals; also recorded: extended lifespans
[2]
  age-related esg+ cell overproliferation (esg+ cell count): reduced
  mitochondrial ROS output of ISC/EB populations (MitoSOX staining in GFP-marked ISCs/EBs): reduced
  mitochondrial ROS output of the entire posterior midgut (MitoSOX staining): reduced
[2]; listed as 2,4 DNP
  age-related esg+ cell overproliferation (esg+ cell count): fewer esg+cells
  mitochondrial ROS output of ISC/EB populations (MitoSOX staining in GFP-marked ISCs/EBs): decreased MitoSOX staining specifically in ISCs/EBs
  mitochondrial ROS output of the entire posterior midgut (MitoSOX staining): decreased Mitosox staining of the entire posterior midgut
Drosophila [3]; listed as 2,4 DNP
  median lifespan of control flies versus dose: increased their median lifespan in a dose-dependent manner
Drosophila [3]
  lifespan of per^01 mutants: did not extend the lifespan of per^01 mutants
  median lifespan of per^01 null mutants versus dose: no median lifespan increase was observed
  lifespan: extended the lifespan of wild-type male flies in a dose-dependent manner
Drosophila [1]
  respiration (relative CO2 production) of control flies: increased the respiration of control flies to levels similar to those of per^01 mutants
  respiration (relative CO2 production) of per^01 mutants: did not increase the respiration of per^01 mutants

## CC#C[C@]1(O)CC[C@H]2[C@@H]3CCC4=CC(=O)CCC4=C3[C@@H](c3ccc(N(C)C)cc3)C[C@@]21C [RU486, mifepristone]
Drosophila [3]; RU486-inducible UCP overexpression (DaGS>UAS-Ucp4C flies)
  lifespan on RU486 administration (induces constitutive overexpression of UCPs): increased lifespan

## Cc1cc(C(C)(C)C)c(O)c(C(C)(C)C)c1 [BHT, butylated hydroxytoluene]
Drosophila [3]
  median lifespan of control flies versus dose: increased their median lifespan in a dose-dependent manner
  lifespan of per^01 mutants: did not extend the lifespan of per^01 mutants
  median lifespan of per^01 null mutants versus dose: no median lifespan increase was observed
  lifespan: extended the lifespan of wild-type male flies in a dose-dependent manner; also recorded: increased lifespan compared to vehicle-fed controls

## C=C(C)[C@H]1Cc2c(ccc3c2O[C@@H]2COc4cc(OC)c(OC)cc4[C@@H]2C3=O)O1 [rotenone]
Drosophila [1]
  respiration (relative CO2 production) of control flies: inhibited the CO2 output of both control and per^01 animals to a similar degree
  respiration (relative CO2 production) of per^01 mutants: inhibited the CO2 output of both control and per^01 animals to a similar degree

## CCCCCCCCCCCCCCCCCC(=O)O [stearic acid]
Drosophila [1]
  respiration (relative CO2 production) of control flies: increased the respiration of control flies to levels similar to those of per^01 mutants
  respiration (relative CO2 production) of per^01 mutants: did not increase the respiration of per^01 mutants
